# In ChEMBL document CHEMBL1125888, “Inhibitors of cholesterol biosynthesis. 3. Tetrahydro-4-hydroxy-6-[2-(1H-pyrrol-1-yl)ethyl]-2H-pyran-2-one inhibitors of HMG-CoA reductase. 2. Effects of introducing substituents at positions three and four of the pyrrole nucleus” (J Med Chem, 1991):
# Assays:
# [1] = target: T1, 3-hydroxy-3-methylglutaryl-coenzyme A reductase (Rattus norvegicus, UniProt P51639); assay: Inhibition of HMG-CoA reductase activity in partially purified rat liver
# T1 sequence (P51639 whole entry): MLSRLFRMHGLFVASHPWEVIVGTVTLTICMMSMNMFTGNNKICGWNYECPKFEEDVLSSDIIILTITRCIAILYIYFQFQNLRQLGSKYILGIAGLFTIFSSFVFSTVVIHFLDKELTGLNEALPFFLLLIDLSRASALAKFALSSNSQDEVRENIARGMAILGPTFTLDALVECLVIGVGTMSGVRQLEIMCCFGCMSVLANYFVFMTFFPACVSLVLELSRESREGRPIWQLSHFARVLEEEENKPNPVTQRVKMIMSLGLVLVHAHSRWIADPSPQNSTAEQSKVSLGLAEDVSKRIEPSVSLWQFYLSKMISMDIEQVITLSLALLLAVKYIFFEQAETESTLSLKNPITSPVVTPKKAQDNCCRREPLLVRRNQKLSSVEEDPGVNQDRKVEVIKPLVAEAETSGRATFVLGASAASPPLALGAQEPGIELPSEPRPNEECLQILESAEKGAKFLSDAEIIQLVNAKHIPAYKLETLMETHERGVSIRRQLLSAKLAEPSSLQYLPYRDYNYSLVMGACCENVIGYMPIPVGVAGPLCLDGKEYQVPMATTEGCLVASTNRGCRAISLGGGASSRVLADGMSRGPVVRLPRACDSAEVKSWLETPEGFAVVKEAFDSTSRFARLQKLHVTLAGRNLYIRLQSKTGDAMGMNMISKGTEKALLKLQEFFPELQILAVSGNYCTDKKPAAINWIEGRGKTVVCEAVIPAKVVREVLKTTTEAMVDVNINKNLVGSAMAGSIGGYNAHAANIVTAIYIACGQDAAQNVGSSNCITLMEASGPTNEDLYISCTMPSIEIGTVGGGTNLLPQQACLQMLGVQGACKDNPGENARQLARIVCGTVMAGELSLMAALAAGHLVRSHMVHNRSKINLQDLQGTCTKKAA
# [2] = target: T2, 3-hydroxy-3-methylglutaryl-coenzyme A reductase (Rattus norvegicus) (UniProt P51639); assay: Relative potency against HMG-CoA reductase activity in partially purified rat liver; assay type: functional
# T2 sequence (whole entry): T1 sequence (P51639 whole entry)
IC50 [1],Relative potency [2],Compound
40 nM,24,CC(C)c1c(C(=O)OCc2ccccc2)c(-c2ccccc2)c(-c2ccc(F)cc2)n1CC[C@@H]1C[C@@H](O)CC(=O)O1
347 nM,12.5,CC(C)c1cc(-c2ccccc2)c(-c2ccc(F)cc2)n1CC[C@@H]1C[C@@H](O)CC(=O)O1
–,13.9,CC(C)c1c(C(=O)Nc2ccccc2)c(-c2ccccc2)c(-c2ccc(F)cc2)n1CC[C@@H]1C[C@@H](O)CC(=O)O1 (stereo in doubt; (-)-33)
7 nM,–,CC(C)c1c(C(=O)Nc2ccccc2)c(-c2ccccc2)c(-c2ccc(F)cc2)n1CC[C@@H]1C[C@@H](O)CC(=O)O1 (stereo in doubt; (+)-33) [ATORVASTATIN LACTONE]
–,81.4,CC(C)c1c(C(=O)Nc2ccccc2)c(-c2ccccc2)c(-c2ccc(F)cc2)n1CC[C@@H]1C[C@@H](O)CC(=O)O1 (racemic)
4000 nM,0.6,CCOC(=O)c1c(-c2ccccc2)c(-c2ccccc2)n(CC[C@@H]2C[C@@H](O)CC(=O)O2)c1C
71 nM,9.4,CC(C)c1cc(-c2cccnc2)c(-c2ccc(F)cc2)n1CC[C@@H]1C[C@@H](O)CC(=O)O1
800 nM,8.8,CC(C)c1cc(C(=O)C(F)(F)F)c(-c2ccc(F)cc2)n1CC[C@@H]1C[C@@H](O)CC(=O)O1
120 nM,36.3,CC(C)c1c(-c2ccccc2)cc(-c2ccc(F)cc2)n1CC[C@@H]1C[C@@H](O)CC(=O)O1
50 nM,100,CCOC(=O)c1c(-c2ccccc2)c(C(C)C)n(CC[C@@H]2C[C@@H](O)CC(=O)O2)c1-c1ccc(F)cc1

# Second part, the compound before the results:
Compound,IC50 [1],Relative potency [2]
CCOC(=O)c1c(C(=O)OCC)c(C(C)C)n(CC[C@@H]2C[C@@H](O)CC(=O)O2)c1-c1ccc(F)cc1,350 nM,2.8
CC(C)c1c(C(=O)Nc2ccccc2)c(-c2ccccc2)c(-c2ccc(F)cc2)n1CC[C@@H]1C[C@@H](O)CC(=O)O1 (stereo in doubt; (-)-33) [ATORVASTATIN LACTONE],440 nM,–
CC(C)c1c(C(=O)Nc2ccccc2)c(-c2ccccc2)c(-c2ccc(F)cc2)n1CC[C@@H]1C[C@@H](O)CC(=O)O1 (stereo in doubt; (+)-33),–,500
COC(=O)c1c(C(=O)OC)c(C(C)C)n(CC[C@@H]2C[C@@H](O)CC(=O)O2)c1-c1ccc(F)cc1,180 nM,14.3
CC[C@H](C)C(=O)O[C@H]1CCC=C2C=C[C@H](C)[C@H](CC[C@@H]3C[C@@H](O)CC(=O)O3)[C@H]21 [MEVASTATIN],30 nM,100
CC(C)c1cc(-c2ccccn2)c(-c2ccc(F)cc2)n1CC[C@@H]1C[C@@H](O)CC(=O)O1,46 nM,76
CC(C)c1cc(-c2ccncc2)c(-c2ccc(F)cc2)n1CC[C@@H]1C[C@@H](O)CC(=O)O1,310 nM,2.1
CC(C)c1ccc(-c2ccc(F)cc2)n1CC[C@@H]1C[C@@H](O)CC(=O)O1,–,10.9
CC(C)c1c(C(=O)Nc2ccccc2)c(-c2ccccc2)c(-c2ccc(F)cc2)n1CC[C@@H]1C[C@@H](O)CC(=O)O1 (racemic) [ATORVASTATIN LACTONE],25 nM,–
CCOC(=O)c1c(-c2ccc(C#N)cc2)c(-c2ccc(F)cc2)n(CC[C@@H]2C[C@@H](O)CC(=O)O2)c1C(C)C,280 nM,16.2
CCOC(=O)c1c(-c2ccccc2)c(-c2ccccc2)n(CC[C@@H]2C[C@@H](O)CC(=O)O2)c1CC,890 nM,6.3
Cc1c(C)c(C(C)C)n(CC[C@@H]2C[C@@H](O)CC(=O)O2)c1-c1ccc(F)cc1,140 nM,16
CCOC(=O)c1c(-c2ccccc2)c(-c2ccccc2)n(CC[C@@H]2C[C@@H](O)CC(=O)O2)c1C(C)C,170 nM,23.5
CC(C)c1c(Br)c(Br)c(-c2ccc(F)cc2)n1CC[C@@H]1C[C@@H](O)CC(=O)O1,28 nM,78.6
CC(C)c1c(Cl)c(Cl)c(-c2ccc(F)cc2)n1CC[C@@H]1C[C@@H](O)CC(=O)O1,28 nM,78.6
CCOC(=O)c1c(-c2ccccc2)c(-c2ccc(F)cc2)n(CC[C@@H]2C[C@@H](O)CC(=O)O2)c1C(C)C,200 nM,35.5
